Legend:
[1] = Pooled metabolic analysis, 6-week studies: body weight; settings: 6-week studies
Excerpt: OBJECTIVE: To examine the metabolic effects of bifeprunox in patients with acute and stable schizophrenia.
METHODS: Metabolic data was compiled from one 6-month and four 6-week studies (i.e., a treatment period) of bifeprunox in patients with stable and acute schizophrenia, respectively. In the 6-month study, patients received bifeprunox (n=331) or placebo (PBO) (n=166). […] Metabolic evaluations included body weight, body mass index (BMI), plasma glucose and lipid profiles. Fasting glucose and lipid values were assessed in one 6-week study and in the 6-month study. Triglyceride:HDL ratio (TG:HDL) was calculated as a marker of insulin resistance. No statistical analyses were performed; only descriptive statistics are presented.

[2] = test system: adult subjects with schizophrenia; experiment: CGI Improvement score, Clinical Study Two; assay type: in vivo, human; settings: 6 mg, LOCF
Procedure: (§1) Rating scale assessments were performed weekly, except for week 5, to measure the change from baseline to endpoint of the PANSS total score. Other assessments included: PANSS positive symptom subscale score, PANSS negative symptom subscale score, PANSS general pschopathology subscale score, BPRS total score, BPRS psychosis score, the CGI-S score, the CGI-I score, responder rates based on the PANSS total score, and the Calgary Depression Scale for Schizophrenia (CDSS). […]
Subjects who completed this study had the option to continue in the long-term. […] Risperidone-treated subjects were titrated from 2 mg to 6 mg daily over a three-day period and were subsequently maintained at 6 mg/day for the remainder of the treatment period. […] Blood samples were also obtained at Screening/Baseline, Week 3, and Week 6 for clinical laboratory assessments.

[3] = test system: adult subjects with schizophrenia; experiment: BPRS total score, Clinical Study Two; assay type: in vivo, human; settings: LOCF; for Change from Baseline in BPRS Total Score, Mean (SD) / Change from Baseline in BPRS Total Score, Median: Risperidone 6 mg, ITT population
Procedure: as §1
Subjects who completed this study had the option to continue in the long-term. […] Blood samples were also obtained at Screening/Baseline, Week 3, and Week 6 for clinical laboratory assessments.

[4] = test system: adult subjects with schizophrenia; experiment: BPRS psychosis cluster score, Clinical Study Three; assay type: in vivo, human; settings: LOCF; for Change from Baseline in BPRS Psychosis Cluster Score, Mean (SD) / Change from Baseline in BPRS Psychosis Cluster Score, Median: Olanzapine 15 mg, ITT population
Excerpt: SECONDARY OBJECTIVES To assess the efficacy of bifeprunox in treating schizophrenia using the Positive Symptom sub-scale score of the PANSS, the Negative Symptom sub-scale score of the PANSS, the General Psychopathology sub-scale of the PANSS, Brief Psychiatric Rating Scale (BPRS) total score derived from the PANSS, BPRS psychosis score derived from the PANSS, the Clinical Global Impression Severity of Illness score (CGI-S), the Clinical Global Impression Improvement score (CGI-I), CGI-I responder rate, PANSS responder rate based on the PANSS total score, Calgary Depression Scale for Schizophrenia (CDSS), and Subject Satisfaction rating.
There were four treatment arms in this study, approximately 144 subjects per arm. […] After completing the Single-Blind Placebo Lead-in Period of at least three days, bifeprunox-treated subjects were titrated from 0.25 mg up to 20 mg/day or 30 mg/day according to a standardized titration scheme over a seven- or eight-day period, respectively. When the assigned dose was reached, subjects were maintained at that dose for the remainder of the six week treatment period. […] Subjects were hospitalized (if not already inpatients) after eligibility for study entry was verified, starting from the Screening Visit until at least 10 days after Baseline. Subjects could be hospitalized longer than 10 days if considered medically necessary by the Investigator. Rating scale assessments for efficacy and abnormal movement disorders were done weekly except for Week 5. […] Subject satisfaction with study medication was assessed at Week 6.

[5] = test system: adult subjects with schizophrenia; experiment: PANSS responder rates, Clinical Study Three; assay type: in vivo, human
Procedure: There were four treatment arms in this study, approximately 144 subjects per arm. […] After completing the Single-Blind Placebo Lead-in Period of at least three days, bifeprunox-treated subjects were titrated from 0.25 mg up to 20 mg/day or 30 mg/day according to a standardized titration scheme over a seven- or eight-day period, respectively. When the assigned dose was reached, subjects were maintained at that dose for the remainder of the six week treatment period. […] Subjects were hospitalized (if not already inpatients) after eligibility for study entry was verified, starting from the Screening Visit until at least 10 days after Baseline. Subjects could be hospitalized longer than 10 days if considered medically necessary by the Investigator. Rating scale assessments for efficacy and abnormal movement disorders were done weekly except for Week 5. Safety assessments were performed at Screening, during treatment and at the end of the study. Subject satisfaction with study medication was assessed at Week 6. Samples of whole blood were obtained at Weeks 2, 4, and 6 for determination of bifeprunox in plasma.
CLINICAL STUDY THREE. A PANSS responder was defined as a subject whose PANSS total score decreased by 20% or more from Baseline to Endpoint. As exploratory analyses, responder rates were also analyzed using a 30%, 35%, 40%, and 50% definition of responder.

Which “mean weight increase at endpoint” value ([1]; pooled) does the source give for `Cc1nc2n(c(=O)c1CCN1CCC(c3noc4cc(F)ccc34)CC1)CCCC2` [Risperidone, risperidone, reference compound] here?
Its value is 1.7 kg.

What about the mean weight change ([1]; pooled (overall summary)) of the same compound?
The mean weight change was “+1.7 kg”.

What about the “CGI Improvement Minimally Improved, %” value ([2]; Week 2) of the same compound?
Its value is “(40%)”.

What about the “CGI Improvement Minimally Worse, %” value ([2]; Week 2) of the same compound?
The value was “(5%)”.

And the “CGI Improvement Much Improved, %” value ([2]; Week 2)?
The value was “(30%)”.

And the “CGI Improvement Much Worse, %” value ([2]; Week 2)?
Its value is “(3%)”.

And the “CGI Improvement No Change, %” value ([2]; Week 2)?
Its value is “(16%)”.

What about the “CGI Improvement Very Much Improved, %” value ([2]; Week 2) of the same compound?
Its value is “(5%)”.

What about the “CGI Improvement Minimally Improved, %” value ([2]; Week 3) of the same compound?
Its value is “(33%)”.

And the “CGI Improvement Minimally Worse, %” value ([2]; Week 3)?
Its value is “(5%)”.

What about the “CGI Improvement Much Improved, %” value ([2]; Week 3) of the same compound?
Its value is “(36%)”.

What about the “CGI Improvement Much Worse, %” value ([2]; Week 3) of the same compound?
Its value is “(5%)”.

What about the “CGI Improvement No Change, %” value ([2]; Week 3) of the same compound?
The value was “(13%)”.

What about the “CGI Improvement Very Much Improved, %” value ([2]; Week 3) of the same compound?
The value was “(9%)”.

What about the “CGI Improvement Minimally Improved, %” value ([2]; Week 4) of the same compound?
The value was “(25%)”.

What about the “CGI Improvement Minimally Worse, %” value ([2]; Week 4) of the same compound?
The value was “(5%)”.

What about the “CGI Improvement Much Improved, %” value ([2]; Week 4) of the same compound?
Its value is “(38%)”.

And the “CGI Improvement Much Worse, %” value ([2]; Week 4)?
Its value is “(5%)”.

What about the “CGI Improvement No Change, %” value ([2]; Week 4) of the same compound?
The value was “(14%)”.

What about the “CGI Improvement Very Much Improved, %” value ([2]; Week 4) of the same compound?
The value was “(13%)”.

What about the “CGI Improvement Minimally Improved, %” value ([2]; Week 6/Endpoint) of the same compound?
Its value is “(23%)”.

What about the “CGI Improvement Minimally Worse, %” value ([2]; Week 6/Endpoint) of the same compound?
The value was “(5%)”.

What about the “CGI Improvement Much Improved, %” value ([2]; Week 6/Endpoint) of the same compound?
Its value is “(36%)”.

And the “CGI Improvement Much Worse, %” value ([2]; Week 6/Endpoint)?
The value was “(5%)”.

And the “CGI Improvement No Change, %” value ([2]; Week 6/Endpoint)?
The value was “(15%)”.

And the “CGI Improvement Very Much Improved, %” value ([2]; Week 6/Endpoint)?
The value was “(16%)”.

And the “CGI Improvement Very Much Worse, %” value ([2]; Week 6/Endpoint)?
Its value is “(<1%)”.

And the “Change from Baseline in BPRS Total Score, Mean (SD)” value ([3]; Week 1)?
Its value is −5.5 (6.3).

And the “Change from Baseline in BPRS Total Score, Median” value ([3]; Week 1)?
Its value is −5.

What about the “Change from Baseline in BPRS Total Score, Mean (SD)” value ([3]; Week 2) of the same compound?
The value was −9.1 (8.5).

And the “Change from Baseline in BPRS Total Score, Median” value ([3]; Week 2)?
Its value is −9.

And the “Change from Baseline in BPRS Total Score, Mean (SD)” value ([3]; Week 3)?
Its value is −10.7 (9.4).

And the “Change from Baseline in BPRS Total Score, Median” value ([3]; Week 3)?
Its value is −11.

What about the “Change from Baseline in BPRS Total Score, Median” value ([3]; Week 4) of the same compound?
Its value is −13.

What about the “Change from Baseline in BPRS Total Score, Mean (SD)” value ([3]; Week 6/Endpoint) of the same compound?
The value was −12.2 (11.7).

And the “Change from Baseline in BPRS Total Score, Median” value ([3]; Week 6/Endpoint)?
The value was −13.

What about the “mean change (SD) from Baseline to Endpoint in BPRS total score” value ([3]; risperidone 6 mg, ITT) of the same compound?
The value was −12.2 (11.7).

Which results are given for `Cc1cc2c(s1)Nc1ccccc1N=C2N1CCN(C)CC1` [Olanzapine, olanzapine, reference compound]?
Change from Baseline in BPRS Psychosis Cluster Score, Mean (SD) ([4]; Week 1): −1.9 (2.3); Change from Baseline in BPRS Psychosis Cluster Score, Median ([4]; Week 1): −2; Change from Baseline in BPRS Psychosis Cluster Score, Mean (SD) ([4]; Week 2): −3.1 (2.6); Change from Baseline in BPRS Psychosis Cluster Score, Median ([4]; Week 2): −3; Change from Baseline in BPRS Psychosis Cluster Score, Mean (SD) ([4]; Week 3): −4.0 (3.2); Change from Baseline in BPRS Psychosis Cluster Score, Median ([4]; Week 3): −4; Change from Baseline in BPRS Psychosis Cluster Score, Mean (SD) ([4]; Week 4): −4.4 (3.5); Change from Baseline in BPRS Psychosis Cluster Score, Median ([4]; Week 4): −5; Change from Baseline in BPRS Psychosis Cluster Score, Mean (SD) ([4]; Week 6/Endpoint): −4.9 (4.0); Change from Baseline in BPRS Psychosis Cluster Score, Median ([4]; Week 6/Endpoint): −5; mean change (SD) from Baseline to Endpoint in BPRS psychosis cluster score ([4]; olanzapine 15 mg, ITT): −4.9 (4.0); PANSS 20% definition response rate No, % ([5]; 15 mg, Week 6/Endpoint, LOCF): 46%; PANSS 20% definition response rate Yes, % ([5]; 15 mg, Week 6/Endpoint, LOCF): 54%; 20% PANSS responder rate ([5]; olanzapine 15 mg, Endpoint LOCF): 54%
